Test results from paper PMC4977052, “On the Utility of ToxCast™ and ToxPi as Methods for Identifying New Obesogens” (Environmental Health Perspectives, 2016).
pEC50: −log10 of the molar value. “And” between values parts separate entries of the source, which are not always exact repeats. Equal entries are not always repeated. “Also recorded” adds a separate entry of the source. Where two headings read alike, the source gives them in different places.

Legend:
Human PPARγ = conditions: PPARγ direct binding; NA = not active; ref Filer et al. 2014; read-out: NVS Agonist AC50, 2014 Release; cited from earlier work
PPRE = tested on: PPRE; parameters: method as in Knudsen et al. 2011; conditions: ToxCast Phase I 2011 release; NA = not active; ref Knudsen et al. 2011; read-out: ATGC PPRE AC50; cited from earlier work
3T3-L1 preadipocytes = assay: 3T3-L1 adipogenesis assay (lipid accumulation, adipogenic gene expression); type: cell-based; conditions: 0.02-20 μM, 5 days after MDI induction
Procedure: 3T3-L1 cells (ATCC) were maintained in high-glucose DMEM supplemented with 10% fetal bovine serum, 2 mM L-glutamine, 50 IU/mL penicillin, and 50 μg/mL streptomycin. A total of 2 × 10^4 cells per well were seeded in 12-well plates. After 48 hr, cells were exposed to the adipogenic cocktail MDI (500 μM isobutylmethylxanthine, 0.25 nM dexamethasone and 5 μg/mL insulin), 8 μg/mL biotin and 8 μg/mL pantothenate for 2 days. Induction media was removed and cells were exposed to test chemicals during 5 days, replacing the media every 2 days. Rosiglitazone (ROSI) and tributyltin (TBT) were used as positive controls at 100 nM and 50 nM final concentrations, respectively. All ToxCast™ chemicals were tested at 0.02, 0.2, 2, and 20 μM, and DMSO concentration was maintained at 0.1% across all treatments. If the chemical was toxic at 20 μM, we repeated the experiment at 10 μM.
Cells were either fixed in 3.7% formaldehyde in phosphate-buffered saline (PBS) for 30 min at room temperature (RT) for lipid quantitation, or homogenized in TriPure (Roche, Mannheim, Germany) for gene expression analysis. For lipid quantitation, fixed cells were washed twice with PBS and maintained in PBS overnight at 4°C to release residual phenol red. Background of cells were measured prior to staining. Cells were stained with 1 μg/mL Nile red (CAS No. 7385-67-3) (to detect lipid accumulation) and 1 μg/mL Hoechst 33342 (ThermoFisher Scientific) (to detect nuclei as a surrogate for cell number) in PBS for 15 min in the dark at RT and washed twice with PBS. […] Background values of Hoechst and Nile red were subtracted from the RFUs after staining and the ratio RFUNile Red:RFUHoechst was calculated. Data are represented as mean ± SEM. Total RNA was isolated using TriPure (Roche) as recommended by the manufacturer. Reverse transcription and quantitative real-time RT-PCR (QPCR) were performed using Transcriptor RT and SYBR® Green Master Mix (Roche). cDNA was quantitated in a LightCycler® 480 System (Roche Diagnostics, Basel, Switzerland) using primer sets listed in Table S4. Each primer set amplified a single band as determined by gel electrophoresis and melting curve analysis. QPCR data were analyzed using the 2^ΔΔCt method ([Livak and Schmittgen 2001]) relative to ribosomal protein 36b4, normalizing to 0.1% DMSO vehicle. Error bars represent the SEM from four to six biological replicates calculated using standard propagation of error ([Bevington and Robinson 2003]).

C/EBP = tested on: C/EBP; parameters: method as in Knudsen et al. 2011; conditions: ToxCast Phase I 2011 release; NA = not active; ref Knudsen et al. 2011; read-out: ATGC CEBP AC50; cited from earlier work
GAL4-mPPARγ = target: T1, GAL4-mPPARγ (Mus musculus, UniProt P37238); assay: GAL4-mPPARγ activation, transient transfection luciferase reporter in COS7 cells; type: cell-based
T1 construct: expressed in transfected cells; host or cells: COS7
T1 sequence (P37238 with tags, fused parts or gaps limits assumed): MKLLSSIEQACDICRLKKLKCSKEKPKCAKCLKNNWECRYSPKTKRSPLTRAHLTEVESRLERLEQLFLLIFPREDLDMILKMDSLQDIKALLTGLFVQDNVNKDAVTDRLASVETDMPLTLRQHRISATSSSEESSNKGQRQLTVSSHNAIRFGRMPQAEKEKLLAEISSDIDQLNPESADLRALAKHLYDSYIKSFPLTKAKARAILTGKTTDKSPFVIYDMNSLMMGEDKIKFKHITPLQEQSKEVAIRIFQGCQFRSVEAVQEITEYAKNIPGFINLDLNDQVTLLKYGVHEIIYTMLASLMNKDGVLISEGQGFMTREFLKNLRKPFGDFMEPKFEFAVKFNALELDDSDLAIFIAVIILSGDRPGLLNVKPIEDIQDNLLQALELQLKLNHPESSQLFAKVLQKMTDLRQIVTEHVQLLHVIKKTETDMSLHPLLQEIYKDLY
Procedure: pCMX-Gal4, pCMX-Gal4-mPPARγ, and pCMX-Gal4-hRXRα were previously described ([Grün et al. 2006]). Transient transfections were performed in COS7 cells as described ([Chamorro-García et al. 2012]). Briefly, COS7 cells were seeded at 15,000 cells per well in 96-well tissue culture plates in 10% calf bovine serum. The following day, cells were transfected in Opti-MEM at ~ 90% confluency. One microgram of CMX-GAL4 effector plasmid was co-transfected with 5 μg tk-(MH100)4-luciferase reporter and 5 μg of CMX-β-galactosidase transfection control plasmids in Opti-MEM® using Lipofectamine® 2000 reagent (Invitrogen™ Life Technologies, Carlsbad, CA, USA), following the manufacturer’s recommended protocol. All chemicals were solvated in dimethyl sulfoxide (DMSO). After overnight incubation, the medium was replaced with Dulbecco’s Modified Eagle Medium (DMEM; HyClone, Logan, UT, USA), 10% resin charcoal stripped fetal bovine serum (FBS) plus ligands at concentrations indicated in the figure legends for an additional 24 hr. DMSO concentration was maintained at 0.05% across all chemical treatments. Cells were lysed and assayed for luciferase and β-galactosidase activity as previously described ([Forman et al. 1995]). All transfections were performed in triplicate and reproduced in multiple experiments. Data are reported as fold induction or reduction over vehicle ([…]) controls ± SEM (standard error of the mean) using standard propagation of error ([Bevington and Robinson 2003]). […] The EC50, EC10, IC50, and IC10 values from NCGC and ToxCast™ are reported from gain AC50 and AC10 values in the ToxCast™ 2014 release ([Filer et al. 2014]).
Figure 1 ToxCast™ Chemical Activity on PPARγ. The ability of a graded dose series of ToxCast™ chemicals to (A) activate or (B) antagonize GAL4-mPPARγ was tested in transiently transfected COS7 cells. (A, B) Data points are averages of triplicate transfections (three biological replicates). […] Data are depicted as (A) fold induction or (B) reduction over vehicle (0.05% DMSO) controls ± SEM. (A) ToxCast™ chemicals were tested in 3-fold serial dilutions from 100 μM through 0.137 μM, with the final data point being 0.05% DMSO. Rosiglitazone serves as a positive control activator. (B) ToxCast™ chemicals were tested in 3-fold serial dilutions from 100 μM, in competition with 50 nM rosiglitazone (Rosi). […] (C) EC50, EC10, IC50, and IC10 values calculated from A and B are reported and compared to commercial assays (see Figure S1). Note: ATG, Attagene GAL-PPARγ activation assay; NCGC, GeneBLAzer® agonist (EC values) or antagonist (IC values) assays. Triphenyltin was previously published ([Kanayama et al. 2005]).
Figure 4 ToxPi Chemical Activity on PPARγ and RXRα. The ability of a graded dose series of ToxPi chemicals to activate (A) GAL4-mPPARγ or (B) GAL4-hRXRα was tested in transiently transfected COS7 cells. (A, B) Data points are averages of triplicate transfections (three biological replicates). […] ToxPi chemicals were tested in 3-fold serial dilutions from 100 μM through 0.137 μM, with the final data point being 0.05% DMSO. Data are depicted as fold induction over vehicle (0.05% DMSO) controls ± SEM. (A) Rosiglitazone serves as a positive control activator for GAL4-mPPARγ. (B) LG100268 (2-[1-(3,5,5,8,8-Pentamethyl-5,6,7,8-tetrahydro-2-naphthyl)cyclopropyl]pyridine-5-carboxylic acid) serves as a positive control activator for GAL4-hRXRα. (C) EC50 and EC10 values calculated from A and B are reported and compared to other assays (see Figure S1). ATG, Attagene GAL-PPARγ or GAL-RXRα activation assay; NCGC, GeneBLAzer® GAL-PPARγ or GAL-RXRα activation assays. Triphenyltin was previously published ([Kanayama et al. 2005]).

PPARγ [1] = tested on: PPARγ; parameters: method as in Filer et al. 2014; conditions: PPARγ; NA = not active; ref Filer et al. 2014; read-out: NCGC Antag. AC50, 2014 Release; cited from earlier work
PPARγ [2] = conditions: cited from earlier work; for AC50: NA = not active
LXRβ = tested on: LXRβ; parameters: method as in Knudsen et al. 2011; conditions: ToxCast Phase I 2011 release; NA = not active; ref Knudsen et al. 2011; read-out: ATGT LXRβ AC50; cited from earlier work
LXRα = tested on: LXRα; parameters: method as in Knudsen et al. 2011; conditions: ToxCast Phase I 2011 release; NA = not active; ref Knudsen et al. 2011; read-out: ATGT LXRα AC50; cited from earlier work
[3] = PPARγ, ref Filer et al. 2014, read-out: ATG Agonist AC50, 2014 Release
[4] = PPARγ, ref Knudsen et al. 2011, read-out: ATG Agonist AC50, 2011 Release
[5] = Cos-7 transient transfection, PPARγ or RXRα activation assays (Table 2)
[6] = ToxCast Phase I 2011 release, ref Knudsen et al. 2011, read-out: ATGT PPARγ AC50

Compound | AC50 (Human PPARγ) [µM] | AC50 (PPRE) [µM] | Adipogenesis 3T3-L1 (result in words) (3T3-L1 preadipocytes) | AC50 (C/EBP) [µM] | Activation COS7 (result in words), ToxCast PPARγ list (GAL4-mPPARγ) | Activation COS7 (result in words), ToxPi chemicals (GAL4-mPPARγ) | AC50 (PPARγ [1]) [µM] | AC50 (PPARγ [2]; [3]) | AC50 (PPARγ [2]; [4]) [µM] | AC50 (LXRβ) [µM] | AC50 (LXRα) [µM] | Activation COS7 (result in words), ToxPi chemicals (GAL4-mPPARγ; [5]) | AC50 (PPARγ [2]; [6]) [µM] | AC50 (GAL4-mPPARγ) [µM] | pEC50 (GAL4-mPPARγ) | Activation of GAL4-PPARγ (text) (GAL4-mPPARγ; COS7, 100 μM through 0.137 μM) | PPARγ agonists: EC10, Fig 1A / Fig 4A (GAL4-mPPARγ; COS7, computed from EC50 in GraphPad Quick Calc) [µM] | PPARγ agonists: EC10, ATG (PPARγ [2]; AC10, ToxCast 2014 release, ref Filer et al. 2014) [µM] | pEC50 (PPARγ [2]; gain AC50, ToxCast 2014 release, ref Filer et al. 2014, read-out: PPARγ agonists: EC50, ATG) | Activation COS7 (result in words), ToxCast PPARγ list (GAL4-mPPARγ; Cos-7 transient transfection, PPARγ activation or antagonism assays (Table 1, Table S6))
Cc1ccc(-c2c(Cl)nc(C#N)n2S(=O)(=O)N(C)C)cc1 [Cyazofamid] | 9.6 | 12 | Negative | 8.7 | Inactive | Inactive | 32.3 | 10.1 µM and 9.4 µM | 11 | 13 | 11 | – | – | – | – | – | – | – | – | –
O=C(Nc1ccccc1)Nc1ccnc(Cl)c1 [Forchlorfenuron] | – | 26 | Positive | 40 | – | – | – | – | – | 37 | – | Inactive | 46 | – | – | – | – | – | – | –
CC(C)(C)c1ccc(CSc2cnn(C(C)(C)C)c(=O)c2Cl)cc1 [Pyridaben] | – | 1.6 | strongly inhibited adipogenesis; also recorded: Inhibitor | – | – | – | – | – | – | – | – | PPARγ activator | 14 | 3 | 5.53 | activated PPARγ | 0.53 | 2.57 | 5.00 | –
CCc1nn(C)c(C(=O)NCc2ccc(C(C)(C)C)cc2)c1Cl [Tebufenpyrad] | – | 0.83 | Negative | – | – | – | 23.1 | 2.6 µM | 4.9 | 0.46 | 0.36 | Inactive | – | – | – | – | – | – | – | Inactive
